Source: patent US12692532B2, “Compounds and methods for amine oxidase imaging” (ETH ZURICH, priority 2019, dated 2026)
Each block holds one compound with its values, some of them ahead of it. Non-standard residues stand in square brackets, D forms with d. Residues, ends and D or L forms follow the SMILES beside them. *: point of attachment. X1 = Cc1c(CC(=O)*)c(=O)oc2c(F)c(OCCCN)c(F)cc12; X2 = Cc1c(CC(=O)*)c(=O)oc2c(F)c(O)c(F)cc12; dCha = N[C@H](CC1CCCCC1)C(=O)O; Ahx = NCCCCCC(=O)O

Experiments:
[1] = test system: LOX activity in mouse tissue homogenate; assay: Ex vivo fluorescence assay of amine oxidase (LOX) activity in mouse tissue homogenate; assay type: biochemical; conditions: for fluorescent signal (RFU) with skin homogenate, comparison with oLOX probe: 10 μM, 24 h at 37° C., each at its absorbance and emission maximum
Protocol: (§1) Fluorescence experiments for determining amine oxidase activity of a given enzyme are conducted using a fluorescence plate reader and a standard 96-well black polystyrene plate with a clear flat bottom. To the plate 150 μL of the following solutions are added to individual wells, e.g. with at least three replicates: buffer (e.g. 25 mM at pH 7.5), a solution in buffer of the amine-oxidase reactive probe, e.g. Compound 2, (e.g. at 100 μM), a buffered solution of the sample containing an amine-oxidase at the desired concentration(s) (e.g. 40 μg/mL), and a buffered solution of the sample containing amine-oxidases with addition of the probe, e.g. Compound 2, (e.g. at 100 μM). The plate is incubated in the dark at 37° C. for a period of time between 15 min and 24 hours before measurements are taken. Fluorescence is measured by exciting the unmasked probe at the absorbance maximum (e.g. 360 nm) or at 405 nm, and measuring the fluorescence at the emission maximum of the probe, for example at 460 nm. Enzyme activity is observed as fluorescence measured relative to the untreated controls, for example as expressed in relative fluorescent units (RFUs). […] Any change, optionally any statistically relevant change, in fluorescence relative to the untreated controls is indicative of amine oxidase activity.
Skin tissue used for enzymatic analysis of LOX activity was harvested (1 cm×1 cm) and placed in 2 ml of ice-cold PBS. Skin tissue was homogenized using an Ultra-TURRAX homogenizer (KA®-Werke GmbH & CO. KG, Staufen, Germany) and samples were spun at 2000×g to pellet out tissue debris. The supernatant was further purified using a 0.2 μm filter. Tissue homogenates were then evaluated with regard to total in solution protein retrieval using a nanospec absorbance measurement standardized to BSA at 1 mg/mL (Pierce™, Thermo Fisher Scientific Inc, Waltham, USA). Homogenates were diluted to appropriate concentrations (e.g. 1 mg/ml total protein) with 25 mM PIPES, 0.5% Triton X-100 (Sigma Aldrich, St Louis, […], USA) and pre-incubated with the probe (10 μM or 100 μM) at 37° C. in the dark for the designated period of time prior to fluorescence measurements. The resultant fluorescence was then measured using a Tecan Spark 10M Multi-Mode Microplate Reader (Tecan, Männedorf, Switzerland) at ambient temperature with a filter for excitation/emission (e.g. 405/460 nm respectively) as defined for the experiment. Activity is observed as fluorescence measured, and is expressed in relative fluorescent units (RFUs). Graphical presentation and statistical analysis were carried out using Graphpad Prism 7 software, (GraphPad Software, Inc., San Diego, USA.) with statistical significance determined as p<0.05.

[2] = test system: amine-oxidase (LOX) in skin wound; assay: In vivo intradermal administration to mice, histological analysis of skin wound; conditions: for fluorescence in cross section of wound after in vivo administration: 100 μM, 50 μL intradermally, skin harvested after five days
Protocol: Animals: Mice were housed and fed according to Swiss guidelines and all animal experiments were approved by the local veterinary authorities (Kantonales Veterinäramt Zürich). All mice used for these experiments are on a C57BL/6 background. Administration of Compounds 3, 4 and 5 into skin: Peptide solutions at 100 μM were brought to room temperature for 30 min. Male or female mice at 8 weeks of age were anesthetized by intraperitoneal injection of ketamine/xylazine (100 mg ketamine/5-10 mg xylazine per kg body weight), skin shaved and an injection of 50 μL was made intradermally into the back skin. Mice were housed for an additional five days and then skin harvested for histological analysis.
Skin tissue used for histology was harvested and immediately embedded and frozen in tissue freezing Medium® (Leica Biosystems, Wetzlar, Germany). Tissue sections (7 μM) were fixed using ice-cold acetone for 10 min at −20° C. and stained with propidium iodide to visualize nuclei. Images were taken using a 20× objective. For immunofluorescent analysis of collagen, antibodies against collagen I (Southern Biotech, Birmingham, AL, USA; 1310-01) or collagen III (Abcam, Cambridge, UK, ab7778) were used. Fixed tissue sections were incubated with 1% bovine serum albumin (BSA) in PBS for 30 min followed by collagen I (1:400 dilution in 1% BSA) or collagen III (1:800 dilution in 1% BSA) antibodies for 60 min at room temperature. After washing (3×5 min PBS), secondary antibodies (anti-rabbit AF488 (711-547-003) or anti-goat AF488 (705-545-147), Jackson ImmunoResearch) were incubated on the tissues for 30 min at room temperature (both at 1:400 dilution in 1% BSA) and nuclei visualized using propidium iodide. All images were taken using a 20× objective.

[3] = test system: MAO A/MAO B in MCF-7 cells; assay: Confocal microscopy of MCF-7 cells treated with MAO probes; assay type: cell-based; set-up: blue channel (405 nm) fluorescence of the probe / colocalization with MitoTracker Red (405 nm and 561 nm overlay): dose or concentration left out as unconfirmed
Protocol: Cell culture: MCF-7 and SY5Y cells were obtained from the Health Protection Agency (www.HPA.org.uk) or the American Type Culture Collection. […] Culture medium DMEM high glucose, F-12KTM, L-glutamine (200 mM), penicillin (10.000 U/mL), streptomycin (10 mg/mL), and trypan blue solution were purchased from Sigma, Invitrogen, ATCC or BioConcept. Trypsin-EDTA (0.05%/0.02%) in Ca2+- and Mg2+-deficient phosphate buffered saline (PBS) (1:250) was purchased from Amimed. PBS (pH 7.4) was purchased from Invitrogen. […] Cell culture flasks as well as serological pipettes were purchased from BD Biosciences and Sarstedt. Ethylenediaminetetraacetic acid (EDTA) was purchased from Sigma-Aldrich. Hoechst 33342 was purchased from Invitrogen. MitoTracker Red mitochondrial staining dye and live cell imaging solution were purchased from ThermoFisher.
Confocal Microscopy: Fluorescence images of cells were collected using a Nikon Eclipse T1 microscope equipped with a Yokogawa spinning-disk confocal scanner unit CSU-W1-T2, two sCMOS cameras (Orca Flash 4.0 V2) and a LUDL BioPrecision2 stage with piezo focus. Emission in the blue channel was filtered with a 450/50 bandpass filter, emission in the green channel was filtered with a 525/50 bandpass filter and emission in the far-red channel with a 700/75 bandpass filter. Fluorescence images were obtained using an oil-immersion objective with a magnification of 100×1.49 CFI Apo TIRF. The microscope was operated using VisiVIEW (Metamorph).
Prior to the measurement, cells were seeded at a density of 10′000 cells/well in ibidi 8-well plates and were grown for 1 day in DMEM (10% FCS) at 37° C. Afterwards cells were washed with PBS and fresh DMEM was added. Compounds were added to the cells as stock solutions in PBS to reach the final […] concentration. […] Cells were washed with PBS and the live cell imaging solution (200 μL) was added. The live cells were then immediately examined on a confocal microscope (Vistron Spinning Disk). For detection of the coumarin-activation a laser line 405 nm and for MitoTracker a laser line of 561 nm was used.

SSC13 ear tumor = assay: Staining of SSC13 ear tumor tissue sections; conditions: 100 μM in PBS, 4 hours at 37° C.
Protocol: Skin tissue used for histology was harvested and immediately embedded and frozen in tissue freezing Medium® (Leica Biosystems, Wetzlar, Germany). Tissue sections (7 uM) were treated by the addition of 50 μL of each compound at 100 μM in PBS (Compounds 3, 4, 5, or 6) by pipette to completely cover the surface of the section, incubated at 37° C. for 4 hours in the dark, and washed 2× with PBS. Sections were fixed using ice-cold acetone for 10 min at −20° C. and stained with propidium iodide to visualize nuclei. Images were taken using a 20× objective.
For immunofluorescent analysis of collagen, antibodies against collagen I (Southern Biotech, 1310-01) or collagen III (Abcam, ab7778) were used. Fixed tissue sections were incubated with collagen I or collagen III antibodies for 60 min at room temperature. After washing, secondary antibodies (anti-rabbit AF488 (711-547-003) or anti-goat AF488 (705-545-147), Jackson ImmunoResearch) were incubated on the tissues for 30 min at room temperature and nuclei visualized using propidium iodide. All images were taken using a 20× objective.

[4] = target: T1, recombinant human monoamine oxidase B (MAO-B) (Homo sapiens, UniProt P27338); assay: Fluorescence assay with recombinant monoamine oxidase B; assay type: biochemical; conditions: 100 μM, 2 h at 37° C., Ex/Em 405/460 nm
T1 sequence (P27338 1-520): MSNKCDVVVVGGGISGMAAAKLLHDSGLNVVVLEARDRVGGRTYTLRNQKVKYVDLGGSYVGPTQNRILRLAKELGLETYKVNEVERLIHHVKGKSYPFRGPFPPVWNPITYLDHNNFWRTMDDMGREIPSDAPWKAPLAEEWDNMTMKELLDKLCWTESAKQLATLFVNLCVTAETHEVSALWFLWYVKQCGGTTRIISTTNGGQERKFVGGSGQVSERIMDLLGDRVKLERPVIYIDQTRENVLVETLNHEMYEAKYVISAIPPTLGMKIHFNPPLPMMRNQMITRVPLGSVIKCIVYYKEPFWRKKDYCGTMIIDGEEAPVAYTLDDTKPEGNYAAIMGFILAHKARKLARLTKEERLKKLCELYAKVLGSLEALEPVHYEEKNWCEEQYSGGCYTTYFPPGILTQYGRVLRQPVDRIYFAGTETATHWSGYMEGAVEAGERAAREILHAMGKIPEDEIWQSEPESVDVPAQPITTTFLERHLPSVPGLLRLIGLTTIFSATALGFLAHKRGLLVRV
Protocol: as §1

[5] = Absorption and emission spectroscopy, quantum yield; assay type: physicochemical; conditions: excitation wavelength used for the emission scans of FIG. 2
Protocol: Absorption and emission spectroscopy. UV-visible spectra were obtained with a Cary-500 Scan spectrophotometer. The spectra were measured in quartz cuvettes (ThorLabs, CV10Q3500, Newton, NJ USA). Samples were irradiated with an LED transilluminator (Roithner Lasertechnik, LED405-06V, Vienna, Austria) emitting at a wavelength as stated with an incident intensity of ca. 2 mW cm^−2, measured with a power-meter (ThorLabs, PM100D, Newton, NJ USA) equipped with a Si photodiode detector (ThorLabs, S120VC, Newton, NJ USA). Fluorescence spectroscopy was measured in a Fluorolog 3 fluorimeter (Horiba Jobin-Yvon, Germany) fluorimeter with a cuvette sample changer for quartz cuvettes (ThorLabs, CV10Q3500F-E, Newton, NJ USA). All measurements were conducted at 25° C. in 50 mM PBS pH 7.4 buffer solution under red light for ambient illumination to avoid photoactivation.

[6] = 1 h pretreatment with Selegiline, then 10 mM probe 1 h

fluorescent signal (RFU) with skin homogenate, comparison with oLOX probe [1]: ns
Compound: Cl.Cl.NCCCOc1ccc2c(c1)Oc1cc(OCCCN)ccc1C21OC(=O)c2ccccc21 [oLOX, 3′,6′-Bis(3-aminopropoxy)-3H-spiro[2-benzofuran-1,9′-xanthen]-3-one dihydrochloride, reference compound]

Compound: 3-carboxy-6,8-difluoro-7-(4-((tert-butoxycarbonyl)amino)propoxy)-coumarin [Compound 1]
HPLC-MS trace of enzymatic conversion ([1]; after 18 h incubation, UV detection at 254 nm): enzymatic conversion of Compound 1 to PB

Compound: 1-Ahx-[ProProGly]7—NH2 [Compound 5]
fluorescence in cross section of wound after in vivo administration [2]: fluorescence can be clearly visualized at the locations where the peptide-bound probe has been unmasked

Compound: Cc1c(CC(=O)NCCCCCC(=O)N[C@H](CC2CCCCC2)C(=O)N[C@H](CCCNC(=N)N)C(=O)N[C@H](CC2CCCCC2)C(=O)N[C@H](CCCNC(=N)N)C(=O)N[C@H](CC2CCCCC2)C(=O)N[C@H](CCCNC(=N)N)C(N)=O)c(=O)oc2c(F)c(O)c(F)cc12 [PB peptide, PB-Ahx-(ChaR)3—NH2, reference compound] ({X2-Ahx}-[dCha][dR][dCha][dR][dCha][dR]-NH2)
blue channel (405 nm) fluorescence of the probe ([3]; 1 h): fluorescence of the probe | colocalization with MitoTracker Red (405 nm and 561 nm overlay) ([3]; 1 h): lack colocalization

Compound: 1-Ahx-[ProHypGly]7—NH2 [Compound 4]
fluorescence in cross section of wound after in vivo administration [2]: fluorescence can be clearly visualized at the locations where the peptide-bound probe has been unmasked

Compound: 1-[ProHypGly]3-AopProGly-[ProHypGly]3—NH2 [Compound 3]
fluorescence in cross section of wound after in vivo administration [2]: fluorescence can be clearly visualized at the locations where the peptide-bound probe has been unmasked | localization of the probe in the wound ([2]; FIG. 31 (a) center): localizes the probe to collagen and elastin at the sites of LOX-mediated crosslinking | blue fluorescence of the probe in tumor section (SSC13 ear tumor): seen around the periphery of the tumor but is strongest near the side of attachment to the cartilage

Compound: 3-carboxy-6,8-difluoro-7-(4-((tert-butoxycarbonyl)amino)propoxy)-coumarin [Compound 2]
fluorescent signal (RFU) with MAO-B compared to controls [4]: significant increase in fluorescent signal | absorbance maximum [5]: 313 nm | fluorescent signal (RFU) with skin homogenate, comparison with oLOX probe [1]: significant increase in fluorescent signal | fluorescent signal (RFU) with heat-denatured skin homogenate ([1]; 100 μM, 1 h at 37° C., homogenate denatured 1.5 h at 90° C., Ex/Em 405/460 nm): significant decrease in fluorescent signal | fluorescent signal (RFU) with BAPN-inhibited skin homogenate ([1]; 100 μM, 1 h at 37° C., homogenate pretreated with 100 μM BAPN for 2 h, Ex/Em 405/460 nm): significant decrease in fluorescent signal | fluorescent signal (RFU) with lung, skin and liver homogenates ([1]; 100 μM, 18 h at 37° C., Ex/Em 405/460 nm): most significant increase in fluorescent signal was obtained for skin tissue type

Compound: Cc1c(CC(=O)NCCCCCC(=O)N[C@H](CC2CCCCC2)C(=O)N[C@H](CCCNC(=N)N)C(=O)N[C@H](CC2CCCCC2)C(=O)N[C@H](CCCNC(=N)N)C(=O)N[C@H](CC2CCCCC2)C(=O)N[C@H](CCCNC(=N)N)C(N)=O)c(=O)oc2c(F)c(OCCCN)c(F)cc12 [peptide MAO probe, 1-Ahx-[Char]3—NH2] ({X1-Ahx}-[dCha][dR][dCha][dR][dCha][dR]-NH2)
blue channel (405 nm) fluorescence of the probe after MAO-B inhibitor [3, 6]: very little fluorescence | colocalization with MitoTracker Red after MAO-B inhibitor [3, 6]: only poor colocalization
